Patent US20200216417A1, “INHIBITORS OF FIBROBLAST ACTIVATION PROTEIN” (Praxis Biotech LLC, priority 2019, published 2020)

Assays:
[1] = target: T1, recombinant human DPPIV (rhDPPIV) (Homo sapiens, UniProt P27487); test: DPPIV enzymatic activity assay, H-Gly-Pro-pNA; format: biochemical
T1 construct: purchased R&S system (so in the source)

FAPα = target: T2, FAPα (Mus musculus, UniProt P97321); test: FAPα enzymatic activity in mouse plasma (PRXS-AMC); format: biochemical, C57BL/6 mouse; conditions: PRXS-AMC substrate, read-out: mouse plasma FAPα (PRXS-AMC) (exo IC50)
T2 construct: from tissue; host or cells: C57BL/6 mouse plasma (EDTA)
T2 sequence (P97321 24-761 limits assumed): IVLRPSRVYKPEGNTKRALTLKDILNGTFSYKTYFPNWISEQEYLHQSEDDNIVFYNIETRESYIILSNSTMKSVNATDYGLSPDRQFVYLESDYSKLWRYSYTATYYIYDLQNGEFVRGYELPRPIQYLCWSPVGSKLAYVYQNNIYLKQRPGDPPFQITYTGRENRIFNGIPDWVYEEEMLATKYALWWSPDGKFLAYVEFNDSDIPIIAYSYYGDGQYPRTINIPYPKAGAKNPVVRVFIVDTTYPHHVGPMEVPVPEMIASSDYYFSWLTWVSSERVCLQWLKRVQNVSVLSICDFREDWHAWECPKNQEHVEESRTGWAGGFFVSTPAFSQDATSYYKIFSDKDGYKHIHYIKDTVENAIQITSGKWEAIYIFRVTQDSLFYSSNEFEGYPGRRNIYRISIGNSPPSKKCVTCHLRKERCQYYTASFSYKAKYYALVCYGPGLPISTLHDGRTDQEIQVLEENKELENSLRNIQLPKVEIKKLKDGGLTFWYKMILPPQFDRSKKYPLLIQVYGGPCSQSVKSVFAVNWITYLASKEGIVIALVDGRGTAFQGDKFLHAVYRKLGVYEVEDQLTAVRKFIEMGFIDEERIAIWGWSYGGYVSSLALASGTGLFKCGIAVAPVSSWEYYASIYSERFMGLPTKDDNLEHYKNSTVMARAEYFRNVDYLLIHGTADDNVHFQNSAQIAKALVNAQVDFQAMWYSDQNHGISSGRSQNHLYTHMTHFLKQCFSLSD
Experimental: Approximately 500 μL of whole blood from one C57BL/6 mouse was harvested into BD Microtainer® tubes (K2) EDTA (#365974, Becton Dickinson and Co.) via terminal cardiac puncture. The blood sample was immediately centrifuged at approximately 9000 g at 4° C. for 5 minutes. Plasma was separated and stored at −80° C. in aliquots of 300 μL. To assay baseline FAPα enzymatic exopeptidase activity, 5 μL of thawed, plasma was diluted (1:5) with cFAP buffer (100 mM Tris-HCl, 400 mM NaCl, 50 mM salicylic acid, 1 mM EDTA, pH 7.5) and mixed with 35 μL of the same buffer before being pre-incubated with different concentrations of 10 μL of test compounds or DMSO vehicle for 15 minutes at 37° C. in 96-well black plates (Nunc, #237108). After pre-incubation, 50 μL of 200 μM PRXS-AMC were added to the mixture. The assay was performed for 1 hour at 37° C. protected from light. 7-Amino-4-Methylcoumarin (AMC) release was detected measuring fluorescence at an excitation wavelength of 380 nm and an emission wavelength of 460 nm using a Multifunction Microplate Reader (Synergy 4, Biotek). All measurements were carried out at least as a single point.

[2] = target: T3, recombinant human FAPα (rhFAPα) (Homo sapiens, UniProt Q12884); test: FAPα enzymatic endopeptidase (collagenase) activity assay, DQ collagen; format: biochemical; conditions: Table 2, read-out: rhFAPα (endo IC50)
T3 construct: purchased R&S system (so in the source)
T3 sequence (Q12884 1-760): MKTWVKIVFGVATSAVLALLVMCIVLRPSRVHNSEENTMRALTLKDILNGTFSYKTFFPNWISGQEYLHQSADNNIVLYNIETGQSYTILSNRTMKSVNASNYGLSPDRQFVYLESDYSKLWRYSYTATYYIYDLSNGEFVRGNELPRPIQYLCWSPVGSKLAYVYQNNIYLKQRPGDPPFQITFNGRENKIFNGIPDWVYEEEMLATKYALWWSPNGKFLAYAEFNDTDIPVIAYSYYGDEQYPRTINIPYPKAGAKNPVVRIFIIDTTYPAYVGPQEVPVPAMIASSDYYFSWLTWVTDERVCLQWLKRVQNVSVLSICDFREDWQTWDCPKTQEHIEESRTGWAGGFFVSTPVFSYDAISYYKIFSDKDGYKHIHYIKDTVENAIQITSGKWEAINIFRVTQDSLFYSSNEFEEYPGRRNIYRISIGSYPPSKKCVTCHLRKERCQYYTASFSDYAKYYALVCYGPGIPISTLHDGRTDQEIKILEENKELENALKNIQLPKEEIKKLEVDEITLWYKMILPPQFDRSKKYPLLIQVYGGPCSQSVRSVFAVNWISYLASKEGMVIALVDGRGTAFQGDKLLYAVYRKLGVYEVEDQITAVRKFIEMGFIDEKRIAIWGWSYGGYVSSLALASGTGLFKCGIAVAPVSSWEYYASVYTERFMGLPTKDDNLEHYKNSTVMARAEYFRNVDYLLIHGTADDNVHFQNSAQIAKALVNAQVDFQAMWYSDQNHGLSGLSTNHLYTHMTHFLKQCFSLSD

T1 sequence (P27487 whole entry): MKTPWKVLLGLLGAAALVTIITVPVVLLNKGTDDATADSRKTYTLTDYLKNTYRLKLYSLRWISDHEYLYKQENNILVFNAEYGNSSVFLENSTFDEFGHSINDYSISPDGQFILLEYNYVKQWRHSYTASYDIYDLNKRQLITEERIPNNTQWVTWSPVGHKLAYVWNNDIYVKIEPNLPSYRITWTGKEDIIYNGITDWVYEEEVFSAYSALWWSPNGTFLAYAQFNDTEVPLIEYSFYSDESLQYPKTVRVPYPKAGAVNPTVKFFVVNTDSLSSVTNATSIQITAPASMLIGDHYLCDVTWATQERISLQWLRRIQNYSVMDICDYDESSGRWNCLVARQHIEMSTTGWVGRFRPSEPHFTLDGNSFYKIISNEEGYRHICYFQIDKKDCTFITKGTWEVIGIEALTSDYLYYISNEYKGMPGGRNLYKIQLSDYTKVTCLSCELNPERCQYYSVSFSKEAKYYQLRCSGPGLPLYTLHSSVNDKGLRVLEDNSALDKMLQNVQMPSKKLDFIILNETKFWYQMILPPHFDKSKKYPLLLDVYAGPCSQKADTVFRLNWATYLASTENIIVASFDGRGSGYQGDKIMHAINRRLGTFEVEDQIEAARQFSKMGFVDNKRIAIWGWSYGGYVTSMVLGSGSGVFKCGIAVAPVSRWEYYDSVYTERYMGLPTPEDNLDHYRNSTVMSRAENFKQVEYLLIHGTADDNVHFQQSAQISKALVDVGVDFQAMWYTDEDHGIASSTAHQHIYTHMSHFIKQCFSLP

N#C[C@@H]1CC(F)(F)CN1C(=O)CNC(=O)c1ccncc1/C=C/c1ccc(Cl)cc1 [Compound 9, (S,E)-3-(4-chlorostyryl)-N-(2-(2-cyano-4,4-difluoropyrrolidin-1-yl)-2-oxoethyl)isonicotinamide] was tested, and the IC50 ([1]; Table 3A) was over 10 µM, the IC50 ([1]; Table 3B) was over 10 µM and the IC50 (FAPα) was under 1 µM. It also gave an IC50 [2] of under 1 µM.
In the case of N#C[C@@H]1CC(F)(F)CN1C(=O)CNC(=O)c1ccncc1Cc1ccc(F)cc1 [Compound 8, (S)—N-(2-(2-cyano-4,4-difluoropyrrolidin-1-yl)-2-oxoethyl)-3-(4-fluorobenzyl)isonicotinamide], the IC50 ([1]; Table 3A) is reported as over 10 µM, the IC50 ([1]; Table 3B) is reported as over 10 µM and the IC50 (FAPα) is reported as under 1 µM.
For N#C[C@@H]1CC(F)(F)CN1C(=O)CNC(=O)c1ccncc1NC(=O)COc1ccc(Cl)c(F)c1 [Compound 5, (S)-3-(2-(4-chloro-3-fluorophenoxy)acetamido)-N-(2-(2-cyano-4,4-difluoropyrrolidin-1-yl)-2-oxoethyl)isonicotinamide], the IC50 ([1]; Table 3A) was 1 to 10 µM, the IC50 ([1]; Table 3B) was 1 to 10 µM and the IC50 (FAPα) was under 1 µM.
N#C[C@@H]1CC(F)(F)CN1C(=O)CNC(=O)c1ccncc1Cc1ccccc1F [Compound 7, (S)—N-(2-(2-cyano-4,4-difluoropyrrolidin-1-yl)-2-oxoethyl)-3-(2-fluorobenzyl)isonicotinamide] showed an IC50 ([1]; Table 3A) of over 10 µM, an IC50 ([1]; Table 3B) of over 10 µM and an IC50 (FAPα) of under 1 µM.
With COc1ccc(C(=O)Nc2cnccc2C(=O)NCC(=O)N2CC(F)(F)C[C@H]2C#N)cc1 [Compound 3, (S)—N-(2-(2-cyano-4,4-difluoropyrrolidin-1-yl)-2-oxoethyl)-3-(4-methoxybenzamido)isonicotinamide] the IC50 ([1]; Table 3A) was 1 to 10 µM, the IC50 ([1]; Table 3B) was 1 to 10 µM and the IC50 (FAPα) was under 1 µM. The IC50 [2] was under 1 µM.
With N#C[C@@H]1CC(F)(F)CN1C(=O)CNC(=O)c1ccncc1NCc1ccc(F)cc1 [Compound 2, (S)—N-(2-(2-cyano-4,4-difluoropyrrolidin-1-yl)-2-oxoethyl)-3-((4-fluorobenzyl)amino)isonicotinamide] the IC50 ([1]; Table 3A) was over 10 µM, the IC50 ([1]; Table 3B) was over 10 µM and the IC50 (FAPα) was under 1 µM.
